From patent US20200024278A1, “COMPOSITION COMPRISING ANTIBIOTIC COMPOUND AND AN HETEROCYCLIC COMPOUND AND THEIR USE IN PREVENTING OR TREATING BACTERIAL INFECTIONS” (MUTABILIS, priority 2016, published 2020)

Columns and labels:
Assay in all cases: MIC, broth microdilution (CLSI), substance alone or ATB combined with compound at 4 or 8 μg/mL
PAE UFR90 = type: cell-based, P. aeruginosa; conditions: PAE UFR90; for MIC ATB combined with Example compound: compound @8 μg/ml
How it was run: (§1)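 Per CLSI-M7-A7, MICs are determined in cation-adjusted Mueller-Hinton broth with a final inoculum of 5·10^5 CFU/mL. Plates incubate 16-20 h at 35° C in air and are read by eye. Fosfomycin assays carry 25 μg/ml glucose-6-phosphate.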

PAE 105250 = type: cell-based, P. aeruginosa; conditions: PAE 105250; for MIC ATB combined with Example: Example @8 μg/ml; for MIC ATB combined with Example compound: compound @8 μg/ml
How it was run: as §1

PAE UFR48 = type: cell-based, P. aeruginosa; conditions: PAE UFR48; for MIC ATB combined with Example: Example @8 μg/ml; for MIC ATB combined with Example compound: compound @8 μg/ml
How it was run: as §1

ECL P99 = type: cell-based, E. cloacae; conditions: ECL P99; for MIC ATB combined with Example: Example @8 μg/ml
How it was run: as §1

ABA UFR154 = type: cell-based, A. baumannii; conditions: Acinetobacter baumannii, substance alone, read-out: MIC
How it was run: as §1

ABA UFR152 = type: cell-based, A. baumannii; conditions: Acinetobacter baumannii, substance alone, read-out: MIC
How it was run: as §1

KPN UFR42 = type: cell-based, K. pneumoniae; conditions: KPN UFR42; for MIC ATB combined with Example: Example @8 μg/ml; for MIC ATB combined with Example compound: compound @8 μg/ml
How it was run: as §1

KPN 6299 = type: cell-based, K. pneumoniae; conditions: for MIC ATB combined with Example: Example @8 μg/ml
How it was run: as §1

KPN BAA-1898 = type: cell-based, K. pneumoniae; conditions: KPN BAA-1898; for MIC ATB combined with Example: Example @8 μg/ml
How it was run: as §1

[1] = Pseudomonas aeruginosa, substance alone, read-out: MIC

For `O=C1N2CC(n3cccn3)=CC(C2)N1OS(=O)(=O)[O-].[Na+]` (centres unmarked) [Example 11, sodium (7-oxo-3-pyrazol-1-yl-1,6-diazabicyclo[3.2.1]oct-3-en-6-yl) sulfate], the “MIC ATB combined with Example” value (PAE UFR90; ATB PIP, Example @8 μg/ml) was 16 µg/mL, the “MIC ATB combined with Example compound” value (PAE UFR90; MIC of CIP) was 1 µg/mL and the “MIC ATB combined with Example compound” value (PAE UFR90; MIC of CPO) was 2 µg/mL. The MIC (PAE UFR90; [1]) was over 32 µg/mL, the “MIC ATB combined with Example” value (PAE 105250; ATB ATM) was 16 µg/mL and the “MIC ATB combined with Example” value (PAE 105250; ATB FEP) was 8 µg/mL. The “MIC ATB combined with Example” value (PAE 105250; ATB FOS) was over 128 µg/mL, the “MIC ATB combined with Example” value (PAE 105250; ATB MEM) was 2 µg/mL and the “MIC ATB combined with Example” value (PAE 105250; ATB PIP) was 32 µg/mL. For the same compound, the “MIC ATB combined with Example compound” value (PAE 105250; MIC of CIP) was 0.125 µg/mL, the “MIC ATB combined with Example compound” value (PAE 105250; MIC of CPO) was 16 µg/mL and the MIC (PAE 105250; [1]) was over 32 µg/mL. For the same compound, the “MIC ATB combined with Example” value (PAE UFR48; ATB ATM) was 8 µg/mL, the “MIC ATB combined with Example” value (PAE UFR48; ATB FEP) was 32 µg/mL and the “MIC ATB combined with Example” value (PAE UFR48; ATB FOS) was 32 µg/mL. The “MIC ATB combined with Example” value (PAE UFR48; ATB MEM) was 0.25 µg/mL, the “MIC ATB combined with Example” value (PAE UFR48; ATB PIP) was 16 µg/mL and the “MIC ATB combined with Example compound” value (PAE UFR48; MIC of CIP) was 4 µg/mL. For the same compound, the “MIC ATB combined with Example compound” value (PAE UFR48; MIC of CPO) was over 32 µg/mL, the MIC (PAE UFR48; [1]) was over 32 µg/mL and the “MIC ATB combined with Example” value (ECL P99; ATB ATM) was under 0.031 µg/mL. For the same compound, the “MIC ATB combined with Example” value (ECL P99; ATB FEP) was under 0.031 µg/mL, the “MIC ATB combined with Example” value (ECL P99; ATB FOS) was under 0.125 µg/mL and the “MIC ATB combined with Example” value (ECL P99; ATB MEM) was under 0.031 µg/mL. The “MIC ATB combined with Example” value (ECL P99; ATB PIP) was under 0.031 µg/mL, the MIC (ECL P99; Enterobacter cloacae, substance alone, read-out: MIC) was 4 µg/mL and the “MIC ATB combined with Example compound” value (ECL P99; MIC of CIP, compound @8 μg/ml) was under 0.031 µg/mL. For the same compound, the MIC (ABA UFR154) was over 32 µg/mL, the MIC (ABA UFR152) was over 32 µg/mL and the “MIC ATB combined with Example” value (KPN UFR42; ATB ATM) was under 0.031 µg/mL. The “MIC ATB combined with Example” value (KPN UFR42; ATB FEP) was under 0.031 µg/mL, the “MIC ATB combined with Example” value (KPN UFR42; ATB FOS) was under 0.125 µg/mL and the “MIC ATB combined with Example” value (KPN UFR42; ATB MEM) was 0.5 µg/mL. The “MIC ATB combined with Example” value (KPN UFR42; ATB PIP) was over 32 µg/mL, the MIC (KPN UFR42; Klebsiella pneumoniae, substance alone, read-out: MIC) was 8 µg/mL and the “MIC ATB combined with Example compound” value (KPN UFR42; MIC of CIP) was 32 µg/mL. For the same compound, the “MIC ATB combined with Example compound” value (KPN UFR42; MIC of CPO) was under 0.031 µg/mL, the “MIC ATB combined with Example” value (KPN 6299; ATB ATM) was under 0.031 µg/mL and the “MIC ATB combined with Example” value (KPN 6299; ATB FEP) was under 0.031 µg/mL. The “MIC ATB combined with Example” value (KPN 6299; ATB FOS) was under 0.125 µg/mL, the “MIC ATB combined with Example” value (KPN 6299; ATB MEM) was under 0.031 µg/mL and the “MIC ATB combined with Example” value (KPN 6299; ATB PIP) was “<=0.031 μg/mL”. For the same compound, the “MIC ATB combined with Example compound” value (KPN 6299; MIC of CIP, compound @8 μg/ml) was “<=0.031 μg/mL”, the “MIC ATB combined with Example” value (KPN BAA-1898; ATB ATM) was under 0.031 µg/mL and the “MIC ATB combined with Example” value (KPN BAA-1898; ATB FEP) was under 0.031 µg/mL. The “MIC ATB combined with Example” value (KPN BAA-1898; ATB FOS) was “<=0.125 μg/mL”, the “MIC ATB combined with Example” value (KPN BAA-1898; ATB MEM) was “<=0.031 μg/mL” and the “MIC ATB combined with Example” value (KPN BAA-1898; ATB PIP) was under 0.031 µg/mL. The MIC (KPN BAA-1898; Klebsiella pneumoniae, BAA1898, substance alone, read-out: MIC) was 8 µg/mL and the “MIC ATB combined with Example compound” value (KPN BAA-1898; MIC of CIP, compound @8 μg/ml) was under 0.031 µg/mL.
